# Target: SFTSV CBD (cap-binding domain of SFTSV L protein) (Severe fever with thrombocytopenia syndrome virus, UniProt I0DF35)
# Assay: biochemical
# Sequence of SFTSV CBD (cap-binding domain of SFTSV L protein) (I0DF35 1695-1810 limits assumed): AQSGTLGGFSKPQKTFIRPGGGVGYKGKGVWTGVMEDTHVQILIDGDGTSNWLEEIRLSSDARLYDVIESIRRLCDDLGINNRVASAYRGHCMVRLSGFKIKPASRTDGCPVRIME
smiles,measurement,value
C[n+]1cn([C@@H]2O[C@H](COP(=O)(O)OP(=O)(O)OP(=O)(O)O)[C@@H](O)[C@H]2O)c2nc(N)[nH]c(=O)c21 [m^7GTP],Kd,~138 µM

# Reference: PMC7261188 (Nucleic Acids Research, 2020)
